Data set [1] relates to CT26 tumor cells. As to the kind of experiment: Antitumor effect of Clostridium ghonii spores combined with different doses of apatinib (AITAN) in CT26 mouse model. The following applies: for Tumor inhibition rate (row head: Anti-bacterial rate): calculated from tumor weight; for Tumor weight: n=7; for Cure rate: tumors completely eliminated at end of experiment. In kind it is in vivo, BALB/c mice. As for the experimental part:
BALB/c mice were subcutaneously inoculated with CT26 tumor cells to establish a subcutaneous tumor model for colon cancer. 0.2 mL of a cell suspension with a concentration of 7.5×10^6 cells/mL (acceptable range: 6.75×10^6 cells/mL-8.25×10^6 cells/mL) was extracted with a 1-mL disposable sterile syringe and slowly subcutaneously injected into axillae of right forelimbs of mice (pre-sterilized with 75% alcohol). After injection, needle eyes were gently pressed with dry cotton balls.
Tumor measurement: a maximum long diameter (L) and a maximum transverse diameter (W) of a tumor (including a thickness of a mouse skin) were measured with a vernier caliper, and a tumor volume was calculated according to a formula of
Tumor weight: a tumor tissue was dissected out and weighed and tumor weight was recorded.
Tumor inhibition rate (IRTW%)=(average tumor weight of control group-average tumor weight of experimental group)/average tumor weight of control group×100%.
(§1) According to a random principle, the conforming mice (a tumor volume of 0.31-0.41 cm^3) were divided into 8 groups by lottery: control group, spore group, high-dose apatinib (AITAN) group, medium-dose apatinib (AITAN) group, low-dose apatinib (AITAN) group, Clostridium ghonii combined low-dose apatinib (AITAN) group, Clostridium ghonii combined medium-dose apatinib (AITAN) group, and Clostridium ghonii combined high-dose apatinib (AITAN) group.
(§2) Control group: the mice were intratumorally administrated with a same volume of a 0.9% sodium chloride injection; • spore group: the mice were intratumorally administrated at a dose of 1×10^7 cfu/tumor/time twice; • High-dose apatinib (AITAN) group: the mice were gavaged at a dose of 180 mg/kg/d once every day for a total of 7 times; • Medium-dose apatinib (AITAN) group: the mice were gavaged at a dose of 120 mg/kg/d once every day for a total of 7 times; • Low-dose apatinib (AITAN) group: the mice were gavaged at a dose of 60 mg/kg/d once every day for a total of 7 times; and
(§3) Clostridium ghonii combined apatinib (AITAN) groups: mice were first intratumorally administrated with apatinib (AITAN) once every day for 3 days and then Clostridium ghonii spores at a dose of 1×10^7 cfu/tumor/time once every other day for a total of two times. The dose of the apatinib (AITAN) in the combined high, medium and low-dose apatinib (AITAN) groups was the same as that in the high, medium and low-dose apatinib (AITAN) groups.

Data set [2] in a line: Death and net body weight of tumor-bearing mice in Example 3. In kind it is in vivo, BALB/c mice. To be noted: mean ± SD, n=7. As for the experimental part:
Clinical observation: during an administration period, animal behaviors, death or near-death, etc. were observed using the naked eyes once every morning and afternoon.
Body weight: during the administration period, body weight was measured on the day of the tumor measurement from the day of treatment.
as §1, §2, §3

Where [3] appears, read: medium-dose apatinib 120 mg/kg/d.

Each structure is given as a SMILES string.

Regarding `N#CC1(c2ccc(NC(=O)c3cccnc3NCc3ccncc3)cc2)CCCC1` [apatinib (AITAN), apatinib], the Tumor volume in data set [1] (D-1, Table 2 (low-dose apatinib)) is given as 1049.42 ± 166.37 mm^3; in data set [1] (D-1, upper part of Table 2, low-dose apatinib 60 mg/kg/d), 931.50 ± 97.91 mm; in data set [1] (D-4, Table 2 (low-dose apatinib)), 1499.45 ± 303.10 mm^3; in data set [1] (D-4, upper part of Table 2, low-dose apatinib 60 mg/kg/d) it was 1489.82 ± 232.84 mm; in data set [1] (D-8, Table 2 (low-dose apatinib)), 2442.80 ± 882.95 mm^3; in data set [1] (D-8, upper part of Table 2, low-dose apatinib 60 mg/kg/d), 2275.35 ± 348.84 mm. The “Tumor inhibition rate (row head: Anti-bacterial rate)” value in data set [1] (high-dose apatinib 180 mg/kg/d) is given as 21.68%; in data set [1] (low-dose apatinib 60 mg/kg/d) it was 20.21%; in data set [1] (setting [3]), 13.89%. Also, the Tumor weight was determined as 3.49 ± 0.86 g in data set [1] (high-dose apatinib 180 mg/kg/d), 3.55 ± 0.61 g in data set [1] (low-dose apatinib 60 mg/kg/d) and 3.84 ± 0.69 g in data set [1] (setting [3]). The Cure rate in data set [1] (high-dose apatinib 180 mg/kg/d), in data set [1] (low-dose apatinib 60 mg/kg/d) and in data set [1] (setting [3]) was 0% throughout. Besides, the figures for the Net body weight in data set [2] (high-dose apatinib 180 mg/kg/d), in data set [2] (low-dose apatinib 60 mg/kg/d) and in data set [2] (setting [3]) were 18.44 ± 1.42 g, 18.32 ± 1.12 g and 18.02 ± 1.61 g, respectively.

Values taken from US12636323B2, “Use of Clostridium ghonii combined with tumor angiogenesis inhibitor” (priority 2021, dated 2026).
